Key:
[1] = tested on: PLP139-151-immunized SJL mice (EAE); assay: Actively induced EAE in PLP139-151-immunized SJL/J mice, oral treatment; type: in vivo
[2] = tested on: rheumatoid arthritis patients; conditions: cited from earlier work
[3] = Example 2, Table 2, TwHF 12.5 mg/kg/d from day 0, triptolide 10 μg/kg/d from day 8, oral
[4] = Example 2, TwHF 12.5 mg/kg/d, triptolide 10 μg/kg/d, vs control

SMILES	Duration (mean duration of disease) [1, 3] [days]	Group score (EAE clinical score 0-6) [1, 3]	Onset [1, 3]	reduction in the duration of the disease [1, 4] [%]	reduction in the group score [1, 4] [%]	ACR20 ([2]; 24 weeks of the Phase 2 trial) [%]	patients with an ACR20 response ([2]; at 2 weeks) [%]
CC(C)[C@]12O[C@H]1[C@@H]1O[C@]13[C@]1(O[C@H]1C[C@H]1C4=C(CC[C@@]13C)C(=O)OC4)[C@@H]2O [Triptolide, triptolide]	7.6 ± 1	0.88 ± 0.09	13.9 ± 0.95	26.2	52.5	–	–
O=C(O)c1cc(/N=N/c2ccc(S(=O)(=O)Nc3ccccn3)cc2)ccc1O [sulfasalazine]	–	–	–	–	–	21.3	9.8
